Assay results reported in patent US8637664B2, “Alkyl 4- [4- (5-oxo-2,3,5, 11a-tetrahydo-5H-pyrrolo [2, 1-c] [1,4] benzodiazepine-8-yloxy)-butyrylamino]-1H-pyrrole-2-carboxylate derivatives and related compounds for the treatment of a proliferative disease” (Spirogen SARL, priority 2005, dated 2014).

Columns and labels:
[1] = test system: NF-Y binding at ICB1 of Topoisomerase IIα promoter; assay: NF-Y gel shift assay (EMSA) at ICB1
[2] = test system: K562 human chronic myeloid leukaemia cells; assay: In vitro cytotoxicity, MTT assay; type: cell-based; settings: K562, 1 hour drug exposure, MTT after 4 days
Method: K562 human chronic myeloid leukaemia cells were maintained in RPM1 1640 medium supplemented with 10% fetal calf serum and 2 mM glutamine at 37° C. in a humidified atmosphere containing 5% CO2 and were incubated with a specified dose of drug for 1 hour at 37° C. in the dark. The incubation was terminated by centrifugation (5 min, 300 g) and the cells were washed once with drug-free medium. Following the appropriate drug treatment, the cells were transferred to 96-well microtiter plates (10^4 cells per well, 8 wells per sample). Plates were then kept in the dark at 37° C. in a humidified atmosphere containing 5% CO2. The assay is based on the ability of viable cells to reduce a yellow soluble tetrazolium salt, 3-(4,5-dimethylthiazol-2-yl)-2,5-diphenyl-2H-tetrazolium bromide (MTT, Aldrich-Sigma), to an insoluble purple formazan precipitate. Following incubation of the plates for 4 days (to allow control cells to increase in number by approximately 10 fold), 20 μL of MTT solution (5 mg/mL in phosphate-buffered saline) was added to each well and the plates further incubated for 5 hours. The plates were then centrifuged for 5 minutes at 300 g and the bulk of the medium pipetted from the cell pellet leaving 10-20 μL per well. DMSO (200 μL) was added to each well and the samples agitated to ensure complete mixing. The optical density was then read at a wavelength of 550 nm on a Titertek Multiscan ELISA plate reader, and a dose-response curve was constructed.

[3] = test system: 170 bp sequence of the human Topo-IIa promoter; assay: DNase I footprinting on Topo-IIa promoter (ICB1, ICB2 sites); type: binding
Outline: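 DNase I footprinting on a 170 bp human Topo-IIa promoter fragment, compound lanes at 0, 1.6, 8, 40, 200, 1000, 5000 and 25000 nM. Values are the concentrations (μM) at which binding at the ICB1 and ICB2 sites is seen.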

[4] = test system: NF-Y binding at ICB2 of Topoisomerase IIα promoter; assay: NF-Y gel shift assay (EMSA) at ICB2

SMILES | Lowest concentration at which NF-Y binding inhibition was observed [1] [µM] | IC50 [2] [nM] | Concentration at which DNA binding is observed, ICB1 ([3]; ICB1 site) [µM] | Concentration at which DNA binding is observed, ICB2 ([3]; ICB2 site) [µM] | Lowest concentration at which NF-Y binding inhibition was observed [4] [µM]
COC(=O)c1cc(NC(=O)c2cc(NC(=O)CCCOc3cc4c(cc3OC)C(=O)N3CCC[C@H]3C=N4)cn2C)cn1C [Compound 23, (11aS) Methyl 4-({4-[4-(7-Methoxy-6-oxo-2,3,5,11a-tetrahydro-5H-pyrrolo[2,1-c][1,4]benzodiazepine-8-yloxy)-butyrylamino]-1-methyl-1H-pyrrole-2-carbonyl}-amino)-1-methyl-1H-pyrrole-2-carboxylate] | 5 | 3.6 | 1 | 1 | 5
COC(=O)c1cc(NC(=O)c2cc(NC(=O)c3cc(NC(=O)CCOc4cc5c(cc4OC)C(=O)N4CCC[C@H]4C=N5)cn3C)cn2C)cn1C [Compound C11, (11aS) Methyl 4-{[4-({4-[4-(7-Methoxy-5-oxo-2,3,5,11a-tetrahydro-5H-pyrrolo[2,1-c][1,4]benzodiazepine-8-yloxy)-propionylamino]-1-methyl-1H-pyrrole-2-carbonyl]-amino)-1-methyl-1H-pyrrole-2-carbonyl]-amino}-1-methyl-1H-pyrrole-2-carboxylate] | – | 346 | – | – | –
